The subject of data set [1] is BPLER cells. Briefly: Genome-wide siRNA lethality screen (primary screen), CellTiterGlo viability. It counts as cell-based, human. Particulars: for MAD BPLER / Fold BPLER: siRNA pool against the gene; for MAD BPLER: MAD score of viability in BPLER cells; for Fold BPLER: fold viability in BPLER cells; for Ratio: R, BPLER versus HMLER, primary screen.
The test system of a further data set is HMLER cells. Described as above. The data set is classed as cell-based, human. The following applies: for MAD_HMLER / Fold_HMLER: primary screen, HMLER cells; for MAD_HMLER: MAD score; for MAD HMLER: MAD score of viability in HMLER cells; for Fold HMLER: fold viability in HMLER cells.
Data set [2] concerns BPLER cells. Briefly: Secondary (cherry-pick) screen with the 4 individual siRNAs of each pool. Particulars: for Cherry_Score: secondary cherry-pick screen, 4 individual siRNAs of each pool.
Where [3] appears, read: ratio of Fold_BPLER to Fold_HMLER.
Where [4] appears, read: ratio of fold viability BPLER/HMLER.
Setting [5] is: siRNA pool against the gene, fold viability.
The mark [6] stands for this setting: secondary screen with the 4 individual siRNAs of each pool.
Setting [7] is: validation screen with individual siRNAs of each pool.

For the molecule TUT1, the “Ratio BPLER/HMLER” value in the data set on BPLER cells [1] (setting [3]) turned out to be 0.69. The “Ratio BPLER/HMLER” value in the data set with BPLER cells [1] (setting [4]) amounted to 0.69. For the same molecule, in the data set with BPLER cells [1], the “MAD BPLER” value is recorded as −1.91 and the “Fold BPLER” value amounted to 0.680. In the data set with HMLER cells (siRNA pool against the gene), the MAD_HMLER is −0.07, the “MAD HMLER” value is on record as −0.07 and the “Fold HMLER” value is recorded as 0.99. This molecule also had a Fold_HMLER in the data set on HMLER cells (setting [5]) of 0.99. Besides, in the data set on BPLER cells [2], the Cherry_Score worked out at 2. Further, in the data set with BPLER cells [2] (setting [6]), the “Cherry Score” value was found to be 2.

SETX: the “Ratio BPLER/HMLER” value with BPLER cells [1] (setting [3]) is 0.70. The “Ratio BPLER/HMLER” value with BPLER cells [1] (setting [4]) stood at 0.70. Further, in the data set on BPLER cells [1], the “MAD BPLER” value is −2.40 and the “Fold BPLER” value is on record as 0.617. Moreover, in the data set on HMLER cells (siRNA pool against the gene), the MAD_HMLER is −0.72, the “MAD HMLER” value is listed as −0.72 and the “Fold HMLER” value is 0.89. Further, the Fold_HMLER in the data set on HMLER cells (setting [5]) turned out to be 0.89. For the same molecule, the Cherry_Score in the data set on BPLER cells [2] turned out to be 1. Also, the “Cherry Score” value in the data set on BPLER cells [2] (setting [6]) came to 1.

For the molecule NUP205, the “Ratio BPLER/HMLER” value with BPLER cells [1] (setting [3]) came out at 0.73. Further, the “Ratio BPLER/HMLER” value in the data set with BPLER cells [1] (setting [4]) stood at 0.73. Besides, in the data set with BPLER cells [1], the “MAD BPLER” value is listed as −2.88 and the “Fold BPLER” value was 0.544. Further, in the data set on HMLER cells (siRNA pool against the gene), the MAD_HMLER was −1.57, the “MAD HMLER” value is given as −1.57 and the “Fold HMLER” value came out at 0.75. Further, in the data set with HMLER cells (setting [5]), the Fold_HMLER is recorded as 0.75. Moreover, in the data set on BPLER cells [2], the Cherry_Score worked out at 3. Also, the “Cherry Score” value in the data set on BPLER cells [2] (setting [6]) amounted to 3.

Take NM_134444: the Ratio in the data set on BPLER cells [1] is 0.69. Moreover, in the data set with HMLER cells (siRNA pool), the Fold_HMLER came to 1.01. For the same molecule, the “Cherry Score” value with BPLER cells [2] (setting [7]) was determined as 1.

Take TNPO1: the “Ratio BPLER/HMLER” value with BPLER cells [1] (setting [3]) is reported as 0.70. Also, the “Ratio BPLER/HMLER” value in the data set with BPLER cells [1] (setting [4]) amounted to 0.70. In addition, in the data set with BPLER cells [1], the “MAD BPLER” value was −1.99 and the “Fold BPLER” value is reported as 0.630. Further, in the data set with HMLER cells (siRNA pool against the gene), the MAD_HMLER is listed as −0.59, the “MAD HMLER” value was −0.59 and the “Fold HMLER” value worked out at 0.90. Further, the Fold_HMLER with HMLER cells (setting [5]) is 0.90. This molecule displayed a Cherry_Score in the data set on BPLER cells [2] of 1. For the same molecule, the “Cherry Score” value in the data set on BPLER cells [2] (setting [6]) was found to be 1.

Regarding TANC2, the “Ratio BPLER/HMLER” value with BPLER cells [1] (setting [3]) came to 0.67. For the same molecule, the “Ratio BPLER/HMLER” value in the data set on BPLER cells [1] (setting [4]) is 0.67. Moreover, in the data set on BPLER cells [1], the “MAD BPLER” value is recorded as −1.86 and the “Fold BPLER” value was 0.709. For the same molecule, in the data set with HMLER cells (siRNA pool against the gene), the MAD_HMLER is listed as 0.40, the “MAD HMLER” value is 0.40 and the “Fold HMLER” value is reported as 1.05. In the data set with HMLER cells (setting [5]), this molecule showed a Fold_HMLER of 1.05. In addition, the Cherry_Score in the data set with BPLER cells [2] stood at 1. Moreover, in the data set on BPLER cells [2] (setting [6]), the “Cherry Score” value is reported as 1.

For PHF1, the “Ratio BPLER/HMLER” value with BPLER cells [1] (setting [3]) was determined as 0.71. In addition, in the data set with BPLER cells [1] (setting [4]), the “Ratio BPLER/HMLER” value is recorded as 0.71. Besides, in the data set with BPLER cells [1], the “MAD BPLER” value is given as −3.21 and the “Fold BPLER” value was 0.606. Also, in the data set on HMLER cells (siRNA pool against the gene), the MAD_HMLER is −0.72, the “MAD HMLER” value is on record as −0.72 and the “Fold HMLER” value came to 0.86. The same molecule showed a Fold_HMLER in the data set with HMLER cells (setting [5]) of 0.86. In addition, the Cherry_Score with BPLER cells [2] worked out at 1. Besides, the “Cherry Score” value in the data set on BPLER cells [2] (setting [6]) came to 1.

B1: NM_174931 (nucleic acid, listed as Homo sapiens)
DNA: AATAGAGTCTGCACTAGGAAACTGGTGGGAGCCGAGGTCCGGAAGTCCGACGCTGGTCGGTGGGCGCATGCGCAGCGCGCGCTCTACGGCGCTGAACCGGGGCGAGCAGAGAGCTGTCAGATACTATAGCCATATGAAGTTGAACATGGCAGAAGAAGAGGACTATATGTCTGATTCCTTCATTAATGTCCAAGAAGATATCAGACCAGGATTGCCAATGCTAAGGCAAATCCGAGAAGCCCGTCGAAAAGAAGAAAAGCAACAGGAAGCCAATTTGAAAAACAGGCAGAAGAGTTTAAAAGAAGAAGAACAAGAAAGACGTGACATTGGGTTGAAGAATGCACTAGGCTGTGAAAACAAAGGGTTTGCCTTGCTCCAAAAGATGGGCTATAAAAGTGGTCAGGCACTTGGCAAGAGTGGGGGTGGTATTGTTGAACCAATTCCTCTCAATATCAAAACAGGGAAAAGTGGCATTGGTCATGAGGCATCATTAAAACGGAAAGCAGAGGAAAAATTGGAAAGCTACAGAAAAAAGATTCACATGAAAAACCAAGCTGAAGAAAAAGCTGCAGAACAGTTTCGAATGCGACTTAAAAATAAGCAAGATGAAATGAAGCTAGAAGGAGATCTCAGAAGAAGCCAGCGAGCCTGTCAACAACTGGATGTCCAGAAAAATATTCAGGTTCCCAGGGAAGCATGGTACTGGTTGAGGCTTGAAGAGGAGACTGAAGAAGATGAAGAAGAAAAAGAACAGGATGAAGATGAATATAAGAGTGAAGATTTAAGCGTACTGGAAAAATTACAAATATTGACTAGTTATTTAAGAGAAGAACATCTATATTGTATTTGGTGTGGAACAGCCTATGAAGATAAAGAAGACCTATCTTCAAATTGTCCAGGACCAACTTCTGCAGATCATGACTAAGATTATTCCCAATAAAGTGGAAACTTGAAAAATGTTATTACTTCCTAGGGATAGACAATTTAGCAGTTGGAAATCTCAAATTTTTTATGCCAGTAAAGAAAGGGGGACTTTATATAATGTTTTGTTCTTTTTGTACTTTAGAATATGAATGTTCATTGACTTGAAAAAAATAATGCAATGGCATTTCAGAACACAAGTATCACAGAGATGGACAGTTACAATTTATTGCTATATTGTGATACGTGAGGGGTTTAAGGACACCAACAGGTAACTTCTTATTCCCCTCTTCACTTTGGAACAAATTGAGAAATAAGAAATGGGAGTCAGAGGAA
With B1, in the data set on BPLER cells [1], the Ratio is given as 0.72. The Fold_HMLER with HMLER cells (siRNA pool) is listed as 0.65. The “Cherry Score” value in the data set on BPLER cells [2] (setting [7]) stood at 1.

B2: NM_194324 (nucleic acid, listed as Homo sapiens)
DNA: AGCACTGCAGGGCTCTGGGCGGGAAGGCTAACCTGGTGCGGAGCCAGCCTGGGTCTCAGCCCCGCGTACGGCCTTTCACGAGTCTTCAAGCCTTCAGGCTTTCTTCTAGTCAAGATGAGTGATAAACCAGACTTGTCGGAAGTGGAGAAGTTTGACAGGTCAAAACTGAAGAAAACTAATACTGAAGAAAAAAATACTCTTCCCTCAAAGGAAACTATCCAGCAGGAGAAAGAGTGTGTTCAAACATCATAAAATGGGGATCTCCTCCAAAGAGCAGATTTCAGCATTGCCTGACAGTCTTGGTTTTAGGCTTGTTTTTTTGTAAACCTGTGTGTTTGTAGAGATTTCAGACATCTTCTGATTTCTTCTCACCTATATTCCCTGGTTAAGAGGTCAGGGGTAGTGAATGTTTCCTTAAGTTCCTTTTTAAACTTCCCATTGGTATGTAAATTCCAAATGGCAGATGCTGTCAATAACCTTGCCATGGATGACCTTTGTGTAGGTAGTCCTTGCACCTCATGCAGGATAAGCCAATTTTAACTTTCTACAATGGGTGCCTCAATAGTTTCATAATCTTCATGAAGTTGCATCCTTTGGCAGCTTCTTACAGTTTATTTTCACTTCCAATGTAGCAATAAAATAATAAATATAATCGTTGTTGTCTGAAAAAAAAAAAAAAAAAA
Consider B2, for which the Ratio in the data set on BPLER cells [1] is 0.74. Further, the Fold_HMLER with HMLER cells (siRNA pool) is given as 0.87. The “Cherry Score” value in the data set with BPLER cells [2] (setting [7]) was determined as 1.

B3: TMEM14B (nucleic acid, listed as Homo sapiens)
DNA: TTTCTCCCCGCCCTGCCGCGGCCCCGGGGCGCAGCGCGCACGCAATCGCGTTTCCGGAGAGACCTGGCTGCTGTGTCCCGCGGCTTGCGCTCCGTAGTGGACTCCGCGGGCCTTCGGCAGATGCAGGCCTGGGGTAGTCTCCTTTCTGGACTGAGAAGAGAAGAATGGAGAAGCCCCTCTTCCCATTAGTGCCTTTGCATTGGTTTGGCTTTGGCTACACAGCACTGGTTGTTTCTGGTGGGATCGTTGGCTATGTAAAAACAGGCAGCGTGCCGTCCCTGGCTGCAGGGCTGCTCTTCGGCAGTCTAGCCGGCCTGGGTGCTTACCAGCTGTATCAGGATCCAAGGAACGTTTGGGGTTTCCTAGCCGCTACATCTGTTACTTTTGTTGGTGTTATGGGAATGAGATCCTACTACTATGGAAAATTCATGCCTGTAGGTTTAATTGCAGGTGCCAGTTTGCTGATGGCCGCCAAAGTTGGAGTTCGTATGTTGATGACATCTGATTAGCAGAAGTCATGTTCCAGCTTGGACTCATGAAGGATTAAAAATCTGCATCTTCCACTATTTTCAATGTATTAAGAGAAATAAGTGCAGCATTTTTGCATCTGACATTTTACCTAAAAAAAAAAAGACACCAAATTTGGCGGAGGGGTGGAAAATCAGTTGTTACCATTATAACCCTACAGAGGTGGTGAGCATGTAACATGAGCTTATTGAGACCATCATAGAGATCGATTCTTGTATATTGATTTTATCTCTTTCTGTATCTATAGGTAAATCTCAAGGGTAAAATGTTAGGTGTTGACATTGAGAACCCTGAAACCCCATTCCCTGCTCAGAGGAACAGTGTGAAAAAAAATCTCTTGAGAGATTTAGAATATCTTTTCTTTTGCTCATCTTAGACCACAGACTGACTTTGAAATTATGTTAAGTGAAATATCAATGAAAATAAAGTTTACTATAAATAATAAAAAAAAAAAAAAAAAA
As to B3, the “Ratio BPLER/HMLER” value in the data set with BPLER cells [1] (setting [3]) worked out at 0.71. The “Ratio BPLER/HMLER” value with BPLER cells [1] (setting [4]) amounted to 0.71. Further, in the data set on BPLER cells [1], the “MAD BPLER” value was −1.99 and the “Fold BPLER” value is on record as 0.636. Also, in the data set with HMLER cells (siRNA pool against the gene), the MAD_HMLER was −0.56, the “MAD HMLER” value is on record as −0.56 and the “Fold HMLER” value amounted to 0.90. In the data set on HMLER cells (setting [5]), the Fold_HMLER turned out to be 0.90. This molecule also showed a Cherry_Score with BPLER cells [2] of 1. For the same molecule, the “Cherry Score” value in the data set on BPLER cells [2] (setting [6]) was found to be 1.

The record behind these values is US9689040B2, “Selective inhibitors of tumor-initiating cells” (Children's Medical Center Corporation, priority 2011, dated 2017).
